Data from PMC8286840, “Identifying SARS-CoV-2 antiviral compounds by screening for small molecule inhibitors of Nsp3 papain-like protease” (Biochemical Journal, 2021).
Counter-ions that a name gives are not always drawn. Like-named read-outs stand apart in the source and are kept apart here.

Columns and labels:
[1] = molecular target: T1, SARS-CoV-2 PLpro (nsp3 1564–1878) (Severe acute respiratory syndrome coronavirus 2, UniProt P0DTD1); experiment: biochemical; design: FRET-quenched peptide (Pro3) cleavage by PLpro, 10 min pre-incubation, slope over 20 min, normalised to no-compound control; details: high concentration screen, read-out: % of control remaining
[2] = molecular target: T1, SARS-CoV-2 PLpro (nsp3 1564–1878); experiment: biochemical; design: FRET-quenched peptide (Pro3) cleavage by PLpro, 10 min pre-incubation, slope over 20 min, normalised to no-compound control; details: low concentration screen, read-out: % of control remaining

NC(N)=Nc1nc(CSCCN/C=N/S(=O)(=O)c2ccc(Br)cc2)cs1 [Ebrotidine]
remaining activity at 3.75 µM ([1]; Well no.=7003): 103%
remaining activity at 1.25 µM ([2]; Well no.=7003): 106%

C[C@H]([C@H](O)CCC(C)(C)O)[C@H]1CC[C@@]2(O)C3=CC(=O)[C@@H]4C[C@@H](O)[C@@H](O)C[C@]4(C)[C@H]3CC[C@]12C [Ecdysone]
remaining activity at 3.75 µM ([1]; Well no.=3643): 102%
remaining activity at 1.25 µM ([2]; Well no.=3643): 104%

COc1cc2c(cc1O)CCN[C@]21CS[C@@H]2c3c(OC(C)=O)c(C)c4c(c3[C@H](COC1=O)N1[C@@H]2[C@H]2c3c(cc(C)c(OC)c3O)C[C@@H]([C@@H]1C#N)N2C)OCO4 [Ecteinascidin 770]
remaining activity at 3.75 µM ([1]; Well no.=7070): 97.2%
remaining activity at 1.25 µM ([2]; Well no.=7070): 100%

CCCCCCCCCCCCCCCCCCOCC(COP(=O)([O-])OCC[N+](C)(C)C)OC (centres unmarked) [Edelfosine]
remaining activity at 3.75 µM ([1]; Well no.=5699): 96.4%
remaining activity at 1.25 µM ([2]; Well no.=5699): 95.5%

CN1CCc2nc(C(=O)N[C@@H]3C[C@@H](C(=O)N(C)C)CC[C@@H]3NC(=O)C(=O)Nc3ccc(Cl)cn3)sc2C1 [Edoxaban]
remaining activity at 3.75 µM ([1]; Well no.=8572): 97.7%
remaining activity at 1.25 µM ([2]; Well no.=8572): 99.4%

CC[N+](C)(C)c1cccc(O)c1 [Edrophonium chloride]
remaining activity at 3.75 µM ([1]; Well no.=555): 100%
remaining activity at 1.25 µM ([2]; Well no.=555): 99.7%

CCC1(C2=NCCN2)Cc2ccccc2O1 (centres unmarked) [Efaroxan hydrochloride]
remaining activity at 3.75 µM ([1]; Well no.=603): 96.2%
remaining activity at 1.25 µM ([2]; Well no.=603): 97.3%

O=C1Nc2ccc(Cl)cc2[C@@](C#CC2CC2)(C(F)(F)F)O1 [Efavirenz]
remaining activity at 3.75 µM ([1]; Well no.=2248): 101%
remaining activity at 1.25 µM ([2]; Well no.=2248): 97.1%

NCCCC(N)(C(=O)O)C(F)F (centres unmarked) [Eflornithine hydrochloride hydrate]
remaining activity at 3.75 µM ([1]; Well no.=8636): 95.7%
remaining activity at 1.25 µM ([2]; Well no.=8636): 104%

CCCCCCCCCCC/C=C\C/C=C\CCCC(=O)O [Eicosa-5,8-dienoic acid (20:2 n-12)]
remaining activity at 3.75 µM ([1]; Well no.=4309): 106%
remaining activity at 1.25 µM ([2]; Well no.=4309): 102%

CCCCCCCCCCCCCCCCCCCC(=O)O [Eicosanoic acid]
remaining activity at 3.75 µM ([1]; Well no.=4400): 93.4%
remaining activity at 1.25 µM ([2]; Well no.=4400): 94.6%

CC/C=C\C/C=C\C/C=C\C/C=C\C/C=C\CCCC(=O)O [Eicosapentaenoic acid]
remaining activity at 3.75 µM ([1]; Well no.=4251): 101%
remaining activity at 3.75 µM ([1]; Well no.=4448): 96.1%
remaining activity at 3.75 µM ([1]; Well no.=7315): 103%
remaining activity at 1.25 µM ([2]; Well no.=4251): 103%
remaining activity at 1.25 µM ([2]; Well no.=4448): 92.3%
remaining activity at 1.25 µM ([2]; Well no.=7315): 108%

CCCCCCCC/C=C/CCCCCCCC(=O)OC[C@H]1O[C@@H](n2ccc(N)nc2=O)[C@@H](O)[C@@H]1O [Elacytarabine]
remaining activity at 3.75 µM ([1]; Well no.=7716): 110%
remaining activity at 1.25 µM ([2]; Well no.=7716): 105%

CSc1ccc(C(=O)/C=C/c2cc(C)c(OC(C)(C)C(=O)O)c(C)c2)cc1 [Elafibranor]
remaining activity at 3.75 µM ([1]; Well no.=8106): 95.3%
remaining activity at 1.25 µM ([2]; Well no.=8106): 96.6%

COc1cccc(-c2c(C)n(Cc3c(F)cccc3C(F)(F)F)c(=O)n(C[C@H](NCCCC(=O)O)c3ccccc3)c2=O)c1F [Elagolix]
remaining activity at 3.75 µM ([1]; Well no.=7420): 94.7%
remaining activity at 1.25 µM ([2]; Well no.=7420): 97.8%

CCCCCCCC/C=C/CCCCCCCC(=O)O [Elaidic acid]
remaining activity at 3.75 µM ([1]; Well no.=7259): 87.3%
remaining activity at 1.25 µM ([2]; Well no.=7259): 96%

CN(NC(=O)CC(=O)NN(C)C(=S)c1ccccc1)C(=S)c1ccccc1 [Elesclomol]
remaining activity at 3.75 µM ([1]; Well no.=5001): 107%
remaining activity at 3.75 µM ([1]; Well no.=6406): 111%
remaining activity at 1.25 µM ([2]; Well no.=5001): 104%
remaining activity at 1.25 µM ([2]; Well no.=6406): 102%

CCCCCCCC(=O)N[C@H](CN1CCCC1)[C@H](O)c1ccc2c(c1)OCCO2 [Eliglustat]
remaining activity at 3.75 µM ([1]; Well no.=8530): 99%
remaining activity at 1.25 µM ([2]; Well no.=8530): 100%

O=c1oc2c(O)c(O)cc3c(=O)oc4c(O)c(O)cc1c4c23 [Ellagic acid]
remaining activity at 3.75 µM ([1]; Well no.=3346): 101%
remaining activity at 1.25 µM ([2]; Well no.=3346): 99.4%

Cc1c2ccncc2c(C)c2c1[nH]c1ccccc12 [Ellipticine]
remaining activity at 3.75 µM ([1]; Well no.=651): 91.7%
remaining activity at 3.75 µM ([1]; Well no.=3271): 98%
remaining activity at 1.25 µM ([2]; Well no.=651): 95.5%
remaining activity at 1.25 µM ([2]; Well no.=3271): 102%

COc1cc2c(cc1Cc1cccc(Cl)c1F)c(=O)c(C(=O)O)cn2[C@H](CO)C(C)C [Elvitegravir (GS-9137)]
remaining activity at 3.75 µM ([1]; Well no.=5008): 101%
remaining activity at 1.25 µM ([2]; Well no.=5008): 99.3%

CCCCCCCCCCCC1=C(O)C(=O)C=C(O)C1=O [Embelin]
remaining activity at 3.75 µM ([1]; Well no.=3273): 107%
remaining activity at 3.75 µM ([1]; Well no.=6494): 88.6%
remaining activity at 1.25 µM ([2]; Well no.=3273): 105%
remaining activity at 1.25 µM ([2]; Well no.=6494): 95.2%

CC[C@H]1CN2CCc3cc(OC)c(OC)cc3[C@@H]2C[C@@H]1C[C@H]1NCCc2cc(OC)c(OC)cc21 [Emetine dihydrochloride hydrate]
remaining activity at 3.75 µM ([1]; Well no.=646): 103%
remaining activity at 1.25 µM ([2]; Well no.=646): 104%

CC(C)C[C@H]1C(=O)O[C@H](Cc2ccc(N3CCOCC3)cc2)C(=O)N(C)[C@@H](CC(C)C)C(=O)O[C@H](C)C(=O)N(C)[C@@H](CC(C)C)C(=O)O[C@H](Cc2ccc(N3CCOCC3)cc2)C(=O)N(C)[C@@H](CC(C)C)C(=O)O[C@H](C)C(=O)N1C [Emodepside]
remaining activity at 3.75 µM ([1]; Well no.=8506): 100%
remaining activity at 1.25 µM ([2]; Well no.=8506): 100%

Cc1cc(O)c2c(c1)C(=O)c1cc(O)cc(O)c1C2=O [Emodin]
remaining activity at 3.75 µM ([1]; Well no.=749): 96.3%
remaining activity at 3.75 µM ([1]; Well no.=3282): 93.4%
remaining activity at 1.25 µM ([2]; Well no.=749): 98.9%
remaining activity at 1.25 µM ([2]; Well no.=3282): 92%

OC[C@H]1O[C@@H](c2ccc(Cl)c(Cc3ccc(O[C@H]4CCOC4)cc3)c2)[C@H](O)[C@@H](O)[C@@H]1O [Empagliflozin (BI 10773)]
remaining activity at 3.75 µM ([1]; Well no.=8724): 91.3%
remaining activity at 1.25 µM ([2]; Well no.=8724): 98.6%

C[C@H](NC(=O)C(=O)Nc1ccccc1C(C)(C)C)C(=O)N[C@@H](CC(=O)O)C(=O)COc1c(F)c(F)cc(F)c1F [Emricasan]
remaining activity at 3.75 µM ([1]; Well no.=7118): 95.9%
remaining activity at 1.25 µM ([2]; Well no.=7118): 95.7%

Nc1nc(=O)n([C@@H]2CS[C@H](CO)O2)cc1F [Emtricitabine]
remaining activity at 3.75 µM ([1]; Well no.=1733): 100%
remaining activity at 1.25 µM ([2]; Well no.=1733): 100%

CCOC(=O)[C@H](CCc1ccccc1)N[C@@H](C)C(=O)N1CCC[C@H]1C(=O)O [Enalapril (maleate)]
remaining activity at 3.75 µM ([1]; Well no.=7638): 94.6%
remaining activity at 1.25 µM ([2]; Well no.=7638): 93.9%

CCOC(=O)[C@H](CCc1ccccc1)N[C@@H](C)C(=O)N1CCC[C@H]1C(=O)O [Enalapril]
remaining activity at 3.75 µM ([1]; Well no.=2024): 102%
remaining activity at 1.25 µM ([2]; Well no.=2024): 93.5%

C[C@H](N[C@@H](CCc1ccccc1)C(=O)O)C(=O)N1CCC[C@H]1C(=O)O [Enalaprilat (dihydrate)]
remaining activity at 3.75 µM ([1]; Well no.=7842): 97.1%
remaining activity at 1.25 µM ([2]; Well no.=7842): 94.7%
